Earlier results, collected in patent US6416793B1, “Formulations and use of controlled-release indole alkaloids” (BioResponse, L.L.C., priority 2000, dated 2002).
Structures can show the parent of a compound that is named as a salt.

Columns and labels:
[1] = test system: overweight female subjects; settings: three weeks
[2] = test system: dogs; settings: 0.4 mg/kg/day
[3] = test system: obese and non-obese women; settings: in vivo
[4] = tableted preparations of pure yohimbine
[5] = test system: overweight men; settings: 16.2 to 43.2 mg/day, six month period
[6] = test system: diet-restricted animals
[7] = test system: humans

Molecule: yohimbine
- continued weight loss versus placebo ([1]; 5 mg 4 times per day (20 mg/day), weight loss diet): Significantly greater continued weight loss
- energy expenditure during exercise ([1]; 20 mg/day): greater energy expenditure in the treated group during exercise
- body weight [2]: rapid loss of body weight
- daily food intake ([2]; rapidly absorbed pure yohimbine): dramatic reduction in daily food intake
- circulating levels of norepinephrine [3]: increase circulating levels of norepinephrine

Molecule: COC(=O)[C@@H]1[C@H]2C[C@H]3c4[nH]c5ccccc5c4CCN3C[C@@H]2CC[C@@H]1O [yohimbine]
- plasma half life [4]: less than 1 hour

Molecule: COC(=O)[C@@H]1[C@H]2C[C@H]3c4[nH]c5ccccc5c4CCN3C[C@@H]2CC[C@@H]1O [yohimbine Hcl, (16 alpha, 17 alpha)-17-hydroxyyohimban-16-carboxylic acidmethyl ester hydrochloride]
- additional weight loss versus placebo [5]: failed to show advantage in additional weight loss over placebo

Molecule: O=C(O[C@@H]1Cc2c(O)cc(O)cc2O[C@@H]1c1cc(O)c(O)c(O)c1)c1cc(O)c(O)c(O)c1 [epigallocatechin gallate (EGCG), epigallocatechin gallate]
- rate of weight loss [6]: increase the rate of weight loss in diet-restricted animals
- resting energy expenditure [7]: increase resting energy expenditure in humans
